Source: US20240374692A1, “A NOVEL ACYLATED INSULIN ANALOG” (SUNSHINE LAKE PHARMA CO., LTD., priority 2021, published 2024)
Like-named read-outs stand apart in the source and are kept apart here.

How the values were obtained:
insulin receptor B = target: T1, insulin receptor B (Homo sapiens, UniProt P06213); assay: Insulin receptor B autophosphorylation in transfected cells (Cisbio Phospho-IR beta Tyr1150/1151 kit); format: cell-based; settings: for Relative HI activity: relative to human insulin; for Relative 0% HSA activity: 1.5% HSA relative to 0% HSA
T1 construct: expressed in transfected cells
T1 sequence (P06213 28-758 limits assumed): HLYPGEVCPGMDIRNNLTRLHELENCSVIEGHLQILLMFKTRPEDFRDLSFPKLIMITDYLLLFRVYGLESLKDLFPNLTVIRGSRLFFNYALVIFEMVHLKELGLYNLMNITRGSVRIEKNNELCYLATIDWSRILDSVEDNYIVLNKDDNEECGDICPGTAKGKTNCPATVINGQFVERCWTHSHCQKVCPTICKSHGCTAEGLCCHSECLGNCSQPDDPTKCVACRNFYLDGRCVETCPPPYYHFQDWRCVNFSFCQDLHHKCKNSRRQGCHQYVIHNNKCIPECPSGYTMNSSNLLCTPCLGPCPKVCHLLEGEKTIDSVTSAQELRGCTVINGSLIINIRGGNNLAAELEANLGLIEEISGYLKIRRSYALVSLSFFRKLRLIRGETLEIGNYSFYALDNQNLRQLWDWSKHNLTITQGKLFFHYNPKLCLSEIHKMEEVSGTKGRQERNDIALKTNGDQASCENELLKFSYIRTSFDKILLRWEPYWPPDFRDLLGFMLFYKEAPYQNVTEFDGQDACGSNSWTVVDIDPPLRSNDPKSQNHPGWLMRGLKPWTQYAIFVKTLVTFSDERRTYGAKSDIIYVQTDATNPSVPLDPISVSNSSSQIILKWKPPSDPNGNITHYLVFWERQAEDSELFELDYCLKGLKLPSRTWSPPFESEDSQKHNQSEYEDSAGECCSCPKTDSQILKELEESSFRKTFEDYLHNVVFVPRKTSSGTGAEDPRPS
T1 sequence (P06213 763-1382 partner limits assumed): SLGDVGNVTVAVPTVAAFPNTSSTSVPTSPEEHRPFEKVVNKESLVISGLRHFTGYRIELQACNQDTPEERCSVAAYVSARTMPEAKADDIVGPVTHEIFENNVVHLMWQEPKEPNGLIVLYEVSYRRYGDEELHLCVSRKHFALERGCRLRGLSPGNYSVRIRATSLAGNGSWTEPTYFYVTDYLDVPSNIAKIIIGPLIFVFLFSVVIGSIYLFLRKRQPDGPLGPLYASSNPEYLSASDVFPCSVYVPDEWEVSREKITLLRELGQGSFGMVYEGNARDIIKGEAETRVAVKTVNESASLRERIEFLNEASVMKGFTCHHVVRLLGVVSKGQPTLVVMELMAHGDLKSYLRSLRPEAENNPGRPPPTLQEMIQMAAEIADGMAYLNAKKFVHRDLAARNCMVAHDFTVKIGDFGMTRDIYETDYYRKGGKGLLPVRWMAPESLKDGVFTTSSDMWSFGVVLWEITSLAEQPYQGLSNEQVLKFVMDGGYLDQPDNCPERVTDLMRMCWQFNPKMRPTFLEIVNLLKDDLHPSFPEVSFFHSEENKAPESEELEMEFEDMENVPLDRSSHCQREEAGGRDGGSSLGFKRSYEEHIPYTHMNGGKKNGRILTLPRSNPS
Description: The phosphorylation level of insulin receptor B was detected by Cisbio's Phospho-IR beta (Tyr1150/1151) kit method to evaluate the biological activity of insulin. The cells were seeded into a 96-well plate overnight, and after the serum in the medium was removed, 40 μl of serum-free medium was added to culture for about 4 h. Then a dilution series of insulin derivatives were prepared with blank solution (0.6% casein, 0.06 mg/mL EDTA, 1×DPBS) and incubated with cells in the 96-well plate for 5 min in a CO2 incubator (37° C., 5% CO2). The liquid in the 96-well plate was poured off, 100 µL of a mixture of lysis buffer (2% Triton X-100, 150 mM NaCl, 50 mM HEPES, pH=7) and inhibitor (Blocking Reagent in the kit) was added to lyse the cells, then the plate was shaken at 350 rpm for 30 min. Relative activity (in percent (%)) was assessed by measuring insulin receptor phosphorylation levels in the supernatant after cell lysis and fitting a curve to the data using nonlinear regression in Graphpad Prism 5 software. Related assays were also used, in which the blank solution also contained 1.5% HSA to simulate physiological conditions. Changes in the phosphorylation levels of the insulin-activated insulin receptors of the invention were detected as an indirect reflection of the albumin binding activity.

normal C57BL/6 mice = assay: Hypoglycemic effect, single subcutaneous administration to normal C57BL/6 mice; format: in vivo; parameters: blood glucose: unit not given here; settings: for blood glucose / effective blood glucose control time / time after administration at which blood glucose reached the lowest level / time after administration at which blood glucose returned to normal: Degludec 200 nmol/Kg, others 1400 nmol/Kg; for blood glucose: Mean ± SEM, n = 6; for blood glucose compared with the control group: 1 h after single S.C. administration
Description: SPF grade C57BL/6 mice were reared in a suitable rearing box in a barrier environment, with a rearing temperature of 20-26° C., a humidity of 40-70%, a time between day and night of 12 h/12 h, and the mice had free access to standard food and autoclaved sterilization water. After a 3-day quarantine period and a 2-day acclimation period, random blood glucose was measured and mice were weighed. Mice were divided into 6 groups according to random blood glucose and body weight.
Single subcutaneous administration (S.C.) was used to administer the corresponding vehicle or drug. The control group was administered the vehicle PBS without fasting during the whole process, and the animals were allowed to eat and drink freely. Random blood glucose values of C57 mice were measured before administration and at 0.25, 0.5, 1, 2, 4, 6, 8, 10, 24, 48, 54, 72 and 96 hours after administration.
(§1) All raw data were entered into Excel files and expressed as Mean±SEM. Statistical analysis of data was performed using Graphpad Prism 7.0 software, one-way or two-way ANOVA comparison method, and P<0.05 was used as the criterion for significant differences.

[1] = mouse, in vivo, sc, 10 nmol/kg
[2] = tested on: STZ-induced type I diabetes mellitus (T1DM) C57BL/6 mice; assay: Hypoglycemic effect, repeated administration (four times) to STZ-induced T1DM C57BL/6 mice (Example 5); format: in vivo; parameters: key to random blood glucose: random blood glucose in mmol/L, Mean±SEM; settings: for random blood glucose: 1400 nmol/Kg S.C. four times
Description: SPF grade C57BL/6 mice were reared in a suitable rearing box in a barrier environment, with a rearing temperature of 20-26° C., a humidity of 40-70%, a time between day and night of 12 h/12 h, and the mice had free access to standard food and autoclaved sterilization water. After a 3-day quarantine period and a 2-day acclimation period, the mice were fasted for 12 h, and the mice were injected intraperitoneally with streptozotocin solution (STZ, 13 mg/mL, in citrate buffer) or citrate buffer at 130 mg/kg (control group). 3 Days and 7 days after administration of streptozotocin, random blood glucose and fasting blood glucose were detected, and the random blood glucose value above 25 mmol/L and fasting blood glucose value above 11.1 mmol/L were selected as T1DM model mice for follow-up experiments. On the day before administration, random blood glucose was monitored and mice were weighed. Mice were divided into 4 groups according to random blood glucose and body weight.
Subcutaneous administration (S.C.) was used to administer the corresponding vehicle or drug, once every 4-5 days, for a total of 4 administrations. During the experiment, the animals were allowed to eat and drink water freely. The random blood glucose before the first administration, and 0.25, 0.5, 1, 2, 4, 6, 8, 10, 24, 48, 72, and 96 h after administration were assessed, as well as the random blood glucose before the second, third and fourth administration, and 1, 2, 4, 6, 8, 24, 48, 72, 96 and 120 h after administration.
as §1

[3] = rat, in vivo, sc, 10 nmol/kg
[4] = rat, in vivo, iv, 10 nmol/kg
[5] = 0 h (before administration), single S.C.

EC50 (insulin receptor B; 0% HSA) | Relative HI activity (insulin receptor B; 0% HSA) | EC50 (insulin receptor B; 1.5% HSA) | Substance | blood glucose (normal C57BL/6 mice; [5]) | blood glucose (normal C57BL/6 mice; 0.25 h after single S.C.) | blood glucose (normal C57BL/6 mice; 0.5 h after single S.C.) | blood glucose compared with the control group (normal C57BL/6 mice) | blood glucose (normal C57BL/6 mice; 1 h after single S.C.) | blood glucose (normal C57BL/6 mice; 2 h after single S.C.) | blood glucose (normal C57BL/6 mice; 4 h after single S.C.) | blood glucose (normal C57BL/6 mice; 6 h after single S.C.) | blood glucose (normal C57BL/6 mice; 8 h after single S.C.) | blood glucose (normal C57BL/6 mice; 10 h after single S.C.) | blood glucose (normal C57BL/6 mice; 24 h after single S.C.) | blood glucose (normal C57BL/6 mice; 48 h after single S.C.) | blood glucose (normal C57BL/6 mice; 72 h after single S.C.) | blood glucose (normal C57BL/6 mice; 96 h after single S.C.) | effective blood glucose control time (normal C57BL/6 mice; single S.C.) | time after administration at which blood glucose reached the lowest level (normal C57BL/6 mice; single S.C.) | time after administration at which blood glucose returned to normal (normal C57BL/6 mice; single S.C.) | also measured
0.00455 µM | 27.07% | 0.0206 µM | insulin degludec [reference compound] | 7.8 ± 0.8 | 6.5 ± 1.1 | 5.0 ± 0.4 | decreased significantly | 4.7 ± 1.1 | 4.4 ± 1.3 | 5.4 ± 0.6 | 5.4 ± 1.2 | 5.8 ± 0.8 | 5.7 ± 0.9 | 8.3 ± 0.9 | 8.0 ± 0.3 | 8.0 ± 0.8 | 7.9 ± 0.3 | 24 h | 2 h | 24 h | Relative 0% HSA activity (insulin receptor B): 22.10%; Relative HI activity (insulin receptor B; 1.5% HSA): 12.59%
0.23 µM | 0.54% | 5.02 µM | A14E, B16E, B25H, B29K (N^ε-eicosanedioyl-gGlu-2xOEG), DesB30 human insulin analog [Insulin-a1, reference compound] | 7.8 ± 1.1 | 8.8 ± 1.4 | 6.6 ± 0.7 | decreased significantly | 5.6 ± 0.7 | 4.4 ± 0.7 | 3.6 ± 0.7 | 3.8 ± 0.4 | 3.6 ± 0.7 | 3.4 ± 0.7 | 2.9 ± 0.7 | 4.9 ± 1.5 | 7.3 ± 1.3 | 7.8 ± 0.6 | 72 h | 24 h | 48 h | Relative 0% HSA activity (insulin receptor B): 4.58%; Relative HI activity (insulin receptor B; 1.5% HSA): 0.05%; AUClast [1]: 10000 ng·h/mL; T1/2 [1]: 14.3 h; time after administration at which blood glucose reached the lowest level ([2]; 1400 nmol/Kg S.C., Insulin-a1 each administration, Insulin-a3 first and second administrations): 24 h; time after administration at which blood glucose reached the normal level ([2]; 1400 nmol/Kg S.C., after each administration): 72 h; random blood glucose ([2]; Day 0 (1st administration)): 33.3 ± 0.1; random blood glucose ([2]; Day 1): 22.5 ± 9.6; random blood glucose ([2]; Day 4 (2nd administration)): 31.1 ± 2.3; random blood glucose ([2]; Day 5): 15.6 ± 6.6; random blood glucose ([2]; Day 9 (3rd administration)): 28.4 ± 4.9; random blood glucose ([2]; Day 10): 12.2 ± 7.9; random blood glucose ([2]; Day 14 (4th administration)): 28.4 ± 5.9; random blood glucose ([2]; Day 18): 26.2 ± 5.7; time the effective glucose control effect can be maintained ([2]; repeated administration, C57BL6 mice modeled by STZ): 3 days/time; AUClast [3]: 10300 ng·h/mL; MRTINF_obs [3]: 34.1 h; T1/2 [3]: 21 h; AUClast [4]: 7550 ng·h/mL; T1/2 [4]: 15.3 ± 4.8 h
– | – | – | A14E, B16E, B25H, B29K(N(ε)-COOH(CH2)16CO-L-Lys-CO(CH2)2CO—(OEG)2), desB30 human insulin analog [Insulin-a4] | 8.0 ± 1.3 | 9.0 ± 1.9 | 6.2 ± 1.6 | decreased significantly | 5.0 ± 0.5 | 4.8 ± 0.5 | 3.9 ± 0.5 | 3.8 ± 1.1 | 3.2 ± 0.6 | 3.0 ± 0.6 | 5.3 ± 1.8 | 8.7 ± 0.9 | 8.0 ± 0.9 | 7.9 ± 1.1 | 48 h | 10 h | 48 h | –
